PubChem BioAssay AID1259407 (Chemical Carcinogenesis Research Information System (CCRIS), 2018)
The source made the active and inactive calls. No rule for the calls is given here.

Tested on: CCRIS mutagenicity, Ames/micronucleus/aberration tests
Assay: CCRIS mutagenicity studies
[1] = Test System: AMES SALMONELLA TYPHIMURIUM, Strain/Indicator: TA98, Metabolic Activation: NONE, Method: PREINCUBATION
[2] = Test System: AMES SALMONELLA TYPHIMURIUM, Strain/Indicator: TA100, Metabolic Activation: NONE, Method: PREINCUBATION
[3] = Test System: AMES SALMONELLA TYPHIMURIUM, Strain/Indicator: TA1535, Metabolic Activation: NONE, Method: PREINCUBATION
[4] = Test System: AMES SALMONELLA TYPHIMURIUM, Strain/Indicator: TA1537, Metabolic Activation: NONE, Method: PREINCUBATION
[5] = Test System: AMES SALMONELLA TYPHIMURIUM, Strain/Indicator: TA100, Metabolic Activation: NONE, Method: STANDARD PLATE
[6] = Test System: AMES SALMONELLA TYPHIMURIUM, Strain/Indicator: TA1535, Metabolic Activation: NONE, Method: STANDARD PLATE
[7] = Test System: AMES SALMONELLA TYPHIMURIUM, Strain/Indicator: TA98, Metabolic Activation: NONE, Method: STANDARD PLATE
[8] = Test System: AMES SALMONELLA TYPHIMURIUM, Strain/Indicator: TA98, Metabolic Activation: RAT, LIVER, S-9, AROCLOR 1254, Method: STANDARD PLATE
[9] = Test System: AMES SALMONELLA TYPHIMURIUM, Strain/Indicator: TA100, Metabolic Activation: RAT, LIVER, S-9, AROCLOR 1254, Method: STANDARD PLATE

Measured: mutagenic call

N#Cc1ccc([N+](=O)[O-])cc1
inactive: [1] inactive; negative | Test System: AMES SALMONELLA TYPHIMURIUM, Strain/Indicator: TA98, Method: PREINCUBATION inactive; negative | [2] inactive; negative | Test System: AMES SALMONELLA TYPHIMURIUM, Strain/Indicator: TA100, Method: PREINCUBATION inactive; negative | [3] inactive; negative | Test System: AMES SALMONELLA TYPHIMURIUM, Strain/Indicator: TA1535, Method: PREINCUBATION inactive; negative | [4] inactive; negative | Test System: AMES SALMONELLA TYPHIMURIUM, Strain/Indicator: TA1537, Method: PREINCUBATION inactive; negative | Test System: AMES SALMONELLA TYPHIMURIUM, Strain/Indicator: TA1538, Metabolic Activation: NONE, Method: PREINCUBATION inactive; negative | Test System: AMES SALMONELLA TYPHIMURIUM, Strain/Indicator: TA1538, Method: PREINCUBATION inactive; negative

CN(CCCC(=O)O)N=O
active: Test System: AMES SALMONELLA TYPHIMURIUM, Strain/Indicator: TA1535, Metabolic Activation: RAT, LIVER, S-9, KC500 OR PHENOBARBITAL, Method: LIQUID SUSPENSION active; positive

CC(C)(Cl)OC(C)(C)Cl
active: Test System: AMES SALMONELLA TYPHIMURIUM, Strain/Indicator: TA100, Metabolic Activation: RAT, LIVER, S-9, AROCLOR 1254, Method: DESICCATOR active; positive

O=[N+]([O-])c1ccc(OC2CO2)cc1 (stereo not given)
active: [5] active; positive | [6] active; positive

O=[N+]([O-])c1ccc2ncccc2c1
active: [1] active; positive | Test System: AMES SALMONELLA TYPHIMURIUM, Strain/Indicator: TA98, Metabolic Activation: RAT, LIVER, S-9, Method: PREINCUBATION active; positive | [2] active; positive | Test System: AMES SALMONELLA TYPHIMURIUM, Strain/Indicator: TA100, Metabolic Activation: RAT, LIVER, S-9, Method: PREINCUBATION active; positive

CCC1=C(C(=O)OC)C(=O)OC1C (stereo not given)
active: [7] active; positive | [8] active; positive
inactive: Test System: AMES SALMONELLA TYPHIMURIUM, Strain/Indicator: TA98, Metabolic Activation: NONE, Method: DISK ASSAY inactive; negative | Test System: AMES SALMONELLA TYPHIMURIUM, Strain/Indicator: TA98, Metabolic Activation: RAT, LIVER, S-9, AROCLOR 1254, Method: DISK ASSAY inactive; negative

BrCCCCBr
inactive: [1] inactive; negative | Test System: AMES SALMONELLA TYPHIMURIUM, Strain/Indicator: TA98, Metabolic Activation: RAT LIVER S-9, PHENOBARBITAL AND BETA-NAPHTHOFLAVONE, Method: PREINCUBATION inactive; negative | [2] inactive; negative | [4] inactive; negative | Test System: AMES SALMONELLA TYPHIMURIUM, Strain/Indicator: TA1537, Metabolic Activation: RAT LIVER S-9, PHENOBARBITAL AND BETA-NAPHTHOFLAVONE, Method: PREINCUBATION inactive; negative
active: End Point: IN VITRO CHROMOSOMAL ABERRATIONS, Test System: CHL CELLS, Metabolic Activation: RAT, LIVER, S-9, SODIUM PHENOBARBITAL AND 5,6-BENZOFLAVONE active; positive (structural changes); authors report equivocal results for ploidy chang | [3] active; positive | Test System: AMES SALMONELLA TYPHIMURIUM, Strain/Indicator: TA1535, Metabolic Activation: RAT LIVER S-9, PHENOBARBITAL AND BETA-NAPHTHOFLAVONE, Method: PREINCUBATION active; positive | Test System: E.COLI, Strain/Indicator: WP2UVRA, Metabolic Activation: NONE, Method: PREINCUBATION active; positive | Test System: E.COLI, Strain/Indicator: WP2UVRA, Metabolic Activation: RAT LIVER S-9, PHENOBARBITAL AND BETA-NAPHTHOFLAVONE, Method: PREINCUBATION active; positive

COc1nsc2cc([N+](=O)[O-])ccc12
active: [7] active; positive

C[C@H](CCC(=O)O)[C@H]1CC[C@H]2[C@@H]3CC[C@@H]4C[C@@H](O)CC[C@]4(C)[C@H]3CC(=O)[C@]12C
inactive: Test System: AMES SALMONELLA TYPHIMURIUM, Strain/Indicator: TA98, Metabolic Activation: NONE, Method: FLUCTUATION TEST inactive; negative | [1] inactive; negative | Test System: AMES SALMONELLA TYPHIMURIUM, Strain/Indicator: TA98, Metabolic Activation: RAT, LIVER, S-9, PCB, Method: PREINCUBATION inactive; negative | Test System: AMES SALMONELLA TYPHIMURIUM, Strain/Indicator: TA100, Metabolic Activation: NONE, Method: FLUCTUATION TEST inactive; negative

COP(=O)(OC)SC
inactive: Test System: AMES SALMONELLA TYPHIMURIUM, Strain/Indicator: TA97, Metabolic Activation: NONE, Method: STANDARD PLATE inactive; negative | Test System: AMES SALMONELLA TYPHIMURIUM, Strain/Indicator: TA97, Metabolic Activation: RAT, LIVER, S-9, AROCLOR 1254, Method: PREINCUBATION inactive; negative | Test System: AMES SALMONELLA TYPHIMURIUM, Strain/Indicator: TA97, Metabolic Activation: RAT, LIVER, S-9, AROCLOR 1254, Method: STANDARD PLATE inactive; negative | [7] inactive; negative | Test System: AMES SALMONELLA TYPHIMURIUM, Strain/Indicator: TA98, Metabolic Activation: RAT, LIVER, S-9, AROCLOR 1254, Method: PREINCUBATION inactive; negative | [8] inactive; negative | [5] inactive; negative | Test System: AMES SALMONELLA TYPHIMURIUM, Strain/Indicator: TA100, Metabolic Activation: RAT, LIVER, S-9, AROCLOR 1254, Method: PREINCUBATION inactive; negative | [9] inactive; negative

CN1CCN=C(c2ccccc2)c2cc(Cl)ccc21
inactive: [7] inactive; negative | [8] inactive; negative | [5] inactive; negative | [9] inactive; negative | [6] inactive; negative | Test System: AMES SALMONELLA TYPHIMURIUM, Strain/Indicator: TA1535, Metabolic Activation: RAT, LIVER, S-9, AROCLOR 1254, Method: STANDARD PLATE inactive; negative | Test System: AMES SALMONELLA TYPHIMURIUM, Strain/Indicator: TA1537, Metabolic Activation: NONE, Method: STANDARD PLATE inactive; negative | Test System: AMES SALMONELLA TYPHIMURIUM, Strain/Indicator: TA1537, Metabolic Activation: RAT, LIVER, S-9, AROCLOR 1254, Method: STANDARD PLATE inactive; negative

c1ccc2c(c1)cc1cccc3c4cccc5cccc(c54)c2c13
active: Test System: HUMAN H1A1V2 CELLS, Strain/Indicator: TK LOCUS, Metabolic Activation: NONE, Method: SUSPENSION/PLATE active; positive
